A short description of data set [1]: Antiproliferative activity against human CAL33 cells assessed as cell growth inhibition. In kind it is functional, CAL-33.
Data set [2] addresses T1, Signal transducer and activator of transcription 1-alpha/beta (Homo sapiens) (UniProt P42224).
T1 sequence (whole entry): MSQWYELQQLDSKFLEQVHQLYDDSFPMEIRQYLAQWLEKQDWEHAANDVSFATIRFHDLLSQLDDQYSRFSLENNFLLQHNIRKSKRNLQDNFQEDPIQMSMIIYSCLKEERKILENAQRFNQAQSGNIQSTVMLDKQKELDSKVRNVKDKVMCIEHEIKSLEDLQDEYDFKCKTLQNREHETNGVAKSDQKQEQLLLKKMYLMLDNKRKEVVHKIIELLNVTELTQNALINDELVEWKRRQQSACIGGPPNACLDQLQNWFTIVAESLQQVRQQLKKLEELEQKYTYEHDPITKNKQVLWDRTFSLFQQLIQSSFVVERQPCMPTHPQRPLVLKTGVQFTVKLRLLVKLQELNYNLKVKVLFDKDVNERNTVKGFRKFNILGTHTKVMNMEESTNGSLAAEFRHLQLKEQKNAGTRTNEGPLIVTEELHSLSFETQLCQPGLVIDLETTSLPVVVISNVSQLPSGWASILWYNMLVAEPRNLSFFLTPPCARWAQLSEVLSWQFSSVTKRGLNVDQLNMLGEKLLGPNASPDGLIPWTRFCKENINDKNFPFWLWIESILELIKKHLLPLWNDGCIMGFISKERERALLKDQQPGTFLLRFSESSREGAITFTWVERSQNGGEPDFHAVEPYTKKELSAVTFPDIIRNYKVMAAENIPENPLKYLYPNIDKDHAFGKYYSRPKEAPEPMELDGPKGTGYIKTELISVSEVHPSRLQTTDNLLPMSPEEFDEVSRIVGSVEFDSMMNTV
The experiment in a line: Inhibition of IFNgamma-induced STAT1 (unknown origin) at 50 uM.

Data set [3] is described as follows: Antiproliferative activity against human 686LN cells assessed as cell growth inhibition. In kind it is functional.
The subject of data set [4] is FaDu. Kind of data set: Antiproliferative activity against human FADU cells assessed as cell growth inhibition. In kind it is functional.
Data set [5] can be described thus: Antiproliferative activity against human OSC19 cells assessed as cell growth inhibition. In kind it is functional.
For data set [6], the target named is Signal transducer and activator of transcription 3 (Homo sapiens) (UniProt P40763). Kind of data set: Inhibition of STAT3 phosphorylation at Tyr705 in IL6-induced human CAL33 cells assessed as phosphorylated STAT3 at Tyr705 to STAT3 ratio at 100 uM by Western blot analysis. In kind it is cell-based. The settings on record: CAL-33.
The target is the same in data set [7]. The experiment in a line: Inhibition of STAT3 phosphorylation at Tyr705 in IL6-induced human CAL33 cells assessed as phosphorylated STAT3 at Tyr705 to STAT3 ratio at 30 uM by Western blot analysis. In kind it is cell-based. The settings on record: CAL-33. (A western blot detects proteins with antibodies after separation by electrophoresis.)
Data set [8] shares this target. Kind of data set: Inhibition of STAT3 phosphorylation at Tyr705 in IL6-induced human CAL33 cells assessed as phosphorylated STAT3 at Tyr705 to STAT3 ratio at 10 uM by Western blot analysis. In kind it is cell-based. The settings on record: CAL-33.
The target is the same in data set [9]. The experiment in a line: Inhibition of STAT3 in IL6-induced human CAL33 cells assessed as inhibition of Bcl-XL gene levels at 3 to 100 uM by Western blot analysis. In kind it is cell-based. The settings on record: CAL-33.
The target is the same in data set [10]. The experiment in a line: Inhibition of STAT3 in IL6-induced human CAL33 cells assessed as inhibition of cyclin D1 gene levels at 3 to 100 uM by Western blot analysis. In kind it is cell-based. The settings on record: CAL-33.
The subject of data set [11] is Liver microsome. Kind of data set: Half life in human liver microsomes. In kind it is ADME. For orientation: Microsomes from liver hold many membrane-bound enzymes, among them those of drug oxidation.
Data set [12] is described as follows: Half life in mouse liver microsomes. In kind it is ADME.
Data set [13] addresses Signal transducer and activator of transcription 3 (Homo sapiens) (UniProt P40763). The experiment in a line: Inhibition of STAT3 phosphorylation at Tyr705 in IL6-induced human CAL33 cells at 3 to 100 uM by Western blot analysis. In kind it is cell-based. The settings on record: CAL-33.

Calls of active or inactive are those of the source. No cut-off for these calls is given here.

The source of these data is ChEMBL document CHEMBL3826941, “Optimization of pyrazole-containing 1,2,4-triazolo-[3,4-b]thiadiazines, a new class of STAT3 pathway inhibitors” (Bioorg Med Chem Lett, 2016).

Signal transducer and activator of transcription 3 (Homo sapiens), sequence (P40763 whole entry): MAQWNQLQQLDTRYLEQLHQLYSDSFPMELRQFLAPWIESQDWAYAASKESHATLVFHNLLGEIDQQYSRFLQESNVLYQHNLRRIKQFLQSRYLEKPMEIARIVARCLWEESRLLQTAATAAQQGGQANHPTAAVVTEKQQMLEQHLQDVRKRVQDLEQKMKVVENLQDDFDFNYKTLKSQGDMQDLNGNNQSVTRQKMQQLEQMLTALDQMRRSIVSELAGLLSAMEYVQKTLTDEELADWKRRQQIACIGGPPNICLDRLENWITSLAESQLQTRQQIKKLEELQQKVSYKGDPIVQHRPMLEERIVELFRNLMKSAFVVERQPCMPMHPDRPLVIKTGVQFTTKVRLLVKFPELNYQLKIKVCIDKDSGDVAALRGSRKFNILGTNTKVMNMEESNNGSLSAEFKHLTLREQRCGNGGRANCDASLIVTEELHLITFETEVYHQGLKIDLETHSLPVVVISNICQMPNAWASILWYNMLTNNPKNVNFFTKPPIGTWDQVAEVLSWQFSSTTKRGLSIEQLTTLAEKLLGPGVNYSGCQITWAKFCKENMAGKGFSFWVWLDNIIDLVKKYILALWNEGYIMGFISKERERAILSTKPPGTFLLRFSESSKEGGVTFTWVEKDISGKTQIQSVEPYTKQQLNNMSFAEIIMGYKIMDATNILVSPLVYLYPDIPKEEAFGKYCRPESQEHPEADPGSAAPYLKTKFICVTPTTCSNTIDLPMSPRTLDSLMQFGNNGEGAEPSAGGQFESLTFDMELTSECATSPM

As to `COCCC1Sc2nnc(-c3cc(-c4ccccc4)n[nH]3)n2N=C1c1ccc(OC)cc1` (stereo unspecified), the GI50 (commonly the concentration giving 50% growth inhibition) in [1] (Homo sapiens, CAL-33) stood at 0.04 µM.

On to `COc1ccc(C2=Nn3c(nnc3-c3cc(-c4ccc(Cl)cc4)n[nH]3)SC2C)cc1` (stereo in doubt; form 3), for which the GI50 in data set [1] amounted to 21.8 µM.

On to `Clc1ccc(C2=Nn3c(nnc3-c3cc(-c4ccccc4)[nH]n3)SC2)cc1`, for which the inhibition (as a rule, the change of the read-out against control, counted positive when it falls) in data set [2] is “inactive”. Moreover, the GI50 in data set [3] amounted to 27 µM; in data set [4] it was 27 µM; in [1] (Homo sapiens, CAL-33), 27 µM; in [5], 27 µM.

As for `CC1Sc2nnc(-c3cc(-c4ccccc4)n[nH]3)n2N=C1c1ccccc1` (stereo unspecified), the inhibition in [6] stood at 99%; in [7], 28%; in [8], 15%. In addition, the inhibition result in data set [9], in [10] and in data set [13] was “Active” in each case. The GI50 was found to be 32.2 µM in data set [3]; 32.7 µM in data set [4]; 34.1 µM in data set [1] (Homo sapiens, CAL-33); 31.3 µM in data set [5]. Also, the t1/2 turned out to be 27 min in data set [11] and 10 min in data set [12].

Turning to `CC1Sc2nnc(-c3[nH]nc4c3CCC4)n2N=C1c1ccc(Cl)c(Cl)c1` (stereo unspecified), the GI50 in data set [1] (Homo sapiens, CAL-33) stood at 1.9 µM.

With `Clc1ccc(C2=Nn3c(nnc3-c3[nH]nc4c3CCC4)SC2Cc2ccccc2)cc1Cl` (stereo unspecified), in [1] (Homo sapiens, CAL-33), the GI50 worked out at 3.3 µM.

As to `CC(C)CC1Sc2nnc(-c3[nH]nc4c3CCC4)n2N=C1c1ccc(Cl)c(Cl)c1` (stereo unspecified), in data set [1] (Homo sapiens, CAL-33), the concentration for 50% growth inhibition (GI50) came to 3.5 µM.

On to `COc1ccc(C2=Nn3c(nnc3-c3cc(-c4ccc(Cl)cc4)n[nH]3)SC2C)cc1` (stereo in doubt; form 2), for which, in data set [1], the 50% growth inhibitory concentration (GI50) worked out at 2.7 µM.

In the case of `COc1ccc(C2=Nn3c(nnc3-c3[nH]nc4c3CCC4)SC2C(C)C)cc1` (stereo unspecified), the concentration for 50% growth inhibition (GI50) in [1] (Homo sapiens, CAL-33) amounted to 0.4 µM.

As for `CC1(C)Sc2nnc(-c3[nH]nc4c3CCC4)n2N=C1c1ccc(Cl)c(Cl)c1`, the GI50 in [1] (Homo sapiens, CAL-33) is more than 50 µM.

For the molecule `Clc1ccc(C2=Nn3c(nnc3-c3[nH]nc4c3CCC4)SC2)cc1Cl`, the inhibition result in data set [2] was “inactive”. The concentration for 50% growth inhibition (GI50) in [3] worked out at 14 µM; in data set [4] it was 14 µM; in data set [1] (Homo sapiens, CAL-33), 14 µM; in [5], 14 µM. Further, the t1/2 stood at 14 min in [11] and 4 min in [12].

In the case of `COc1ccc(C2=Nn3c(nnc3-c3[nH]nc4c3CCC4)SC2C)cc1` (stereo unspecified), the concentration for 50% growth inhibition (GI50) in [3] is 0.88 µM; in [4], 1.3 µM; in [1] (Homo sapiens, CAL-33) it was 0.18 µM; in data set [5], 3.1 µM.

As to `COc1ccc(C2=Nn3c(nnc3-c3cc(-c4ccc(Cl)cc4)n[nH]3)SC2C)cc1` (stereo in doubt; form 1) [listing 1 of 2 here], the 50% growth inhibitory concentration (GI50) in [3] came out at 17.4 µM; in data set [4], 8.4 µM; in data set [1], 2.2 µM; in data set [5] it was 14.9 µM.

As for `COc1ccc(C2=Nn3c(nnc3-c3cc(-c4ccccc4)n[nH]3)SC2CCN)cc1` (stereo unspecified), in [1] (Homo sapiens, CAL-33), the GI50 came out at 2.5 µM.

Consider `COc1ccc(C2=Nn3c(nnc3-c3cc(-c4ccc(F)cc4)n[nH]3)SC2C)cc1` (stereo unspecified), for which, in data set [1] (Homo sapiens, CAL-33), the GI50 came out at 29.5 µM.

Take `COc1ccc(C2=Nn3c(nnc3-c3cc(-c4ccccc4)n[nH]3)SC2CC(C)C)cc1` (stereo unspecified): the 50% growth inhibitory concentration (GI50) in data set [1] (Homo sapiens, CAL-33) was found to be 0.5 µM.

In the case of `CC1Sc2nnc(-c3cc(-c4ccc(F)cc4)n[nH]3)n2N=C1c1ccccc1` (stereo unspecified), the GI50 in data set [1] (Homo sapiens, CAL-33) turned out to be 36.3 µM.

For the molecule `CC(C)C1Sc2nnc(-c3[nH]nc4c3CCC4)n2N=C1c1ccc(Cl)c(Cl)c1` (stereo unspecified), the 50% growth inhibitory concentration (GI50) in data set [1] (Homo sapiens, CAL-33) worked out at 8.2 µM.

`COc1ccc(C2=Nn3c(nnc3-c3cc(-c4ccc(Cl)cc4)n[nH]3)SC2C)cc1` (stereo in doubt; form 1) [listing 2 of 2 here]: the inhibition in [6] came out at 99.7%; in [7] it was 55%; in [8] it was 21%. The inhibition entry in [9], in data set [10] and in [13] was “Active” in each case.
